{
  "source": "patent US10086074B2",
  "about": "“Compositions and method for light triggered release of materials from nanovesicles” (The Research Foundation for The State University of New York, priority 2012, dated 2018)",
  "tested_on": "Panc-1 xenografts",
  "assay": "Liposomal release from tumors following intratumoral administration",
  "type": "in vivo, nude mice",
  "conditions": "2 hours following injection, 5 nmol",
  "method": "FIG. 13. Example of spatial and temporal control of PoP-liposome permeabilization a) Spatial control of B. subtilis killing with triggered antibiotic release. Gentamicin was loaded in PoP-liposomes and embedded in hot agar along with the bacteria. The indicated spot was irradiated with a 658 nm laser (200 mW/cm^2) for 10 minutes and the plates were photographed 24 hours later. b) Temporal control of cargo release in Panc-1 xenografts. Mice were imaged following intratumoral injection of 5 nmol of either free sulforhodamine B or sulforhodamine B entrapped at self-quenching concentrations in PoP-liposomes. Representative images are shown of the indicated time points and conditions. Laser activation was performed after 2 hours. Representative results shown with n=3 mice per treatment group.\nLiposomal release from tumors following intratumoral administration: Panc-1 tumors were grown by injecting 20 g female nude mice (Charles River) with 3×10^6 Panc-1 cells in a 1:1 matrigel dilution (BD Biosciences) in the hind flank of the mice. Following several weeks of growth, the tumors were carefully injected intratumorally with sulforhodamine B-PoP-liposomes. Images were acquired with an in vivo fluorescence imager (IVIS Lumina II) at the indicated time points with the mice under isoflurane-induced anesthesia. […]",
  "data": [
    {"smiles": "CCN(CC)c1ccc2c(-c3ccc(S(=O)(=O)O)cc3S(=O)(=O)[O-])c3ccc(=[N+](CC)CC)cc-3oc2c1", "note": "[free rhodamine, sulforhodamine B]", "values": [
      {"measurement": "fluorescence in tumor after intratumoral injection", "result": "little fluorescence remaining in the tumor"}
    ]}
  ]
}
